Reference: patent US20070071794A1, “DRUGS FOR TREATING DIABETES” (priority 2004, published 2007)

How the values were obtained:
[1] = test system: INS-1 cells derived from pancreatic β cells of rats; assay: Effect of improving insulin secretion defects in INS-1 cells cultured under high glucose; format: cell-based; conditions: for Index of insulin secretion improvement: 25 mM glucose 28 h, then 11.1 mM glucose + amino acid at 10 times RPMI concentration 19 h, secretion in 16.7 mM glucose 2 h, 0 = defective cond., 1 = ordinary cond.; for improvement in insulin secretion defects (significance): secretion defective + amino acid condition, p<0.05
Source text: INS-1 cells derived from pancreatic β cells of rats were dispersed in each amount of 2×10^5 cells on a 24-well culture plate, then divided into three groups and cultured under the following conditions. That is:
First Group: Culture on RPMI medium (Non-patent Literature 4) under the ordinary condition.
Second Group: Culture under the secretion defective condition by culture under the high glucose concentration. That is, the glucose concentration was increased under the culture conditions of the first group.
Third Group: Under the culture condition of the second group, culture was conducted so that the end concentration of aspartic acid, cystine, serine, asparagine, isoleucine, histidine, hydroxyproline, glutamic acid or valine in the medium became 10 times as high as the concentration thereof in the RPMI medium.
First Group: ordinary condition
• cultured in 11.1 mM glucose for 28 hours, • cultured in 11.1 mM glucose for 19 hours Second Group: secretion defective condition • cultured in 25 mM glucose for 28 hours, • cultured in 11.1 mM glucose for 19 hours Third Group: secretion defective+amino acid condition • cultured in 25 mM glucose for 28 hours,
cultured in 11.1 mM glucose+amino acids for 19 hours
Those cultured cells were further cultured for 1 hour in KRBH buffer (Non-patent Literature 5), and cultured for 2 hours in KRBH buffer containing 16.7 mM glucose. Then, insulin secretion rate was determined. Under the secretion defective condition of the second group, the insulin secretion rate of […] lowered to about 60% of that under the ordinary condition. The effect of improving insulin secretion defects of amino acids was calculated by the following index. Index of insulin secretion improvement=((insulin secretion of the third group)−(insulin secretion of the second group))/((insulin secretion of the first group)−(insulin secretion of the second group))
(Reference: The index of insulin secretion improvement becomes 0 when the insulin secretion in administration of amino acids is same as that in the secretion defective condition, and it becomes 1 when the insulin secretion in administration of amino acids is same as that in the ordinary condition.)

[2] = test system: INS-1 cells derived from pancreatic β cells of rats; assay: Insulin secretion of INS-1 cells with aspartic acid combined with an insulin secretagogue; format: cell-based; conditions: 5 mM glucose, 2 hours; for insulin secretion rate: n=3, Cond. 1 (no drug) 2.85±0.49; for insulin secretion increase (significance, in words): KRBH buffer, 0.3 μM nateglinide and/or 10 mM aspartic acid, compared to Condition 1 (combination also to Conditions 2, 3)
Description: INS-1 cells derived from pancreatic β cells of rats were dispersed in each amount of 2×10^5 cells on a 24-well culture plate, and cultured on RPMI medium for 48 hours. […] Condition 1: KRBH buffer, 5 mM glucose Condition 2: KRBH buffer, 5 mM glucose, 0.3 μM nateglinide Condition 3: […] Condition 4: […]

GK rats = assay: Glucose tolerance test in GK rats fed aspartic acid (blood glucose ΔAUC, insulinogenic index); format: in vivo; conditions: for ΔAUC (blood glucose, glucose tolerance test): eighth week, oral 1 g/kg glucose after 5 hour fasting, CON group 230
Description: Male GK rats (7 weeks old) were fed in the following groups.
CON Group: 5 GK rats Controlled food was administered.
3AS Group: 5 GK rats Food with 3% aspartic acid was administered.
6AS Group: 5 GK rats Food with 6% aspartic acid was administered.
In the eighth week of administration, the glucose tolerance test (oral administration of 1 g/kg of glucose) was conducted to the rats after 5 hour fasting, and their blood glucose and insulin levels were determined over time.
Insulinogenic index was determined from the results of the glucose tolerance test after eight week administration in Example 2. Insulinogenic index is the value wherein the insulin rate secreted in 15 minutes after adding glucose was divided by the glucose level that increased in 15 minutes after adding glucose.

Structure (SMILES)	Index of insulin secretion improvement [1]	improvement in insulin secretion defects (significance) [1]	other results
NC(=O)C[C@H](N)C(=O)O [Asn, asparagine]	0.87	significantly improved	
N[C@@H](CC(=O)O)C(=O)O [Asp, L-aspartic acid]	1.75	significantly improved	insulin secretion rate ([2]; Condition 3: KRBH buffer, 10 mM aspartic acid): 3.69 ± 0.87 ng/mL; insulin secretion increase (significance, in words) [2]: significant insulin secretion increase was not seen; ΔAUC (blood glucose, glucose tolerance test) (GK rats; 3AS group: food with 3% aspartic acid): 190 mg·h/dL; ΔAUC (blood glucose, glucose tolerance test) (GK rats; 6AS group: food with 6% aspartic acid): 140 mg·h/dL; Insulinogenic index (result in words) (GK rats; food with 3% or 6% aspartic acid, eight weeks, insulin secreted / glucose increase in 15 minutes after glucose): improved corresponding to the administered dose; glucose tolerance (result in words) (GK rats; food with 6% aspartic acid, after eight week administration): improvement in the glucose tolerance was seen
N[C@@H](CSSC[C@H](N)C(=O)O)C(=O)O [Cystine, cystine]	1.08	significantly improved	
N[C@@H](CCC(=O)O)C(=O)O [Glu, glutamic acid]	0.57	significantly improved	
N[C@@H](Cc1c[nH]cn1)C(=O)O [His, histidine]	0.67	significantly improved	
O=C(O)[C@@H]1C[C@@H](O)CN1 [Hydroxyproline, hydroxyproline]	0.64	significantly improved	
CC[C@H](C)[C@H](N)C(=O)O [Ile, isoleucine]	0.84	significantly improved	
N[C@@H](CO)C(=O)O [Ser, serine]	0.97	significantly improved	
CC(C)[C@H](N)C(=O)O [Val, valine]	0.35	significantly improved	
N=C(N)NCCC[C@H](N)C(=O)O [arginine, reference compound]		significant improvement in insulin secretion defects was not confirmed	
CC(C)C[C@H](N)C(=O)O [leucine, reference compound]		significant improvement in insulin secretion defects was not confirmed	
NCCCC[C@H](N)C(=O)O [lysine, reference compound]		significant improvement in insulin secretion defects was not confirmed	
CC(C)[C@H]1CC[C@H](C(=O)N[C@H](Cc2ccccc2)C(=O)O)CC1 [nateglinide, reference compound]			insulin secretion rate ([2]; Condition 2: KRBH buffer, 0.3 μM nateglinide): 4.34 ± 1.19 ng/mL; insulin secretion increase (significance, in words) [2]: significant insulin secretion increase was not seen
